Source: the supplement of paper PMC10307832

Key:
Experiment in all cases: relative viability (nuclei count vs DMSO), 5 days (fraction); higher = more cells survive
LCLC-97TM1 = test system: LCLC-97TM1
Outline: (§1)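 Relative viability is defined as nuclei in treated wells over nuclei in vehicle wells. Duplicate plates were run and medians reported. Lung cancer cell lines in 1536-well plates were dosed by pin tool one day after seeding, with one drug or with a fixed anchor-drug dose plus five library-drug doses (not always all listed) in √10 steps, and nuclei were counted after 5 days.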

NCI-H650 = test system: NCI-H650
Outline: as §1

H3255 = test system: H3255
Outline: as §1

NCI-H520 = test system: NCI-H520
Outline: as §1

BEN = test system: BEN
Outline: as §1

NCI-H441 = test system: NCI-H441
Outline: as §1

NCI-H2023 = test system: NCI-H2023
Outline: as §1

NCI-H596 = test system: NCI-H596
Outline: as §1

NCI-H460 = test system: NCI-H460
Outline: as §1

NCI-H1944 = test system: NCI-H1944
Outline: as §1

PC-3 [JPC-3] = test system: PC-3 [JPC-3]
Outline: as §1

## O=c1cc(-c2cccc3c2Sc2ccccc2S3)oc(N2CCOCC2)c1 + Cc1nc(NC(=O)N2CCC[C@H]2C(N)=O)sc1-c1ccnc(C(C)(C)C(F)(F)F)c1 [Alpelisib] (partner 2 µM)
LCLC-97TM1; first compound 0.08 µM
  relative viability: 0.238
LCLC-97TM1; first compound 0.253 µM
  relative viability: 0.27
LCLC-97TM1; first compound 0.8 µM
  relative viability: 0.323
LCLC-97TM1; first compound 2.53 µM
  relative viability: 0.205
LCLC-97TM1; first compound 8 µM
  relative viability: 0.218
NCI-H650; first compound 0.08 µM
  relative viability: 1.1
NCI-H650; first compound 0.253 µM
  relative viability: 1.17
NCI-H650; first compound 0.8 µM
  relative viability: 1.11
NCI-H650; first compound 2.53 µM
  relative viability: 1.07
NCI-H650; first compound 8 µM
  relative viability: 1.08
H3255; first compound 0.08 µM
  relative viability: 0.631
H3255; first compound 0.253 µM
  relative viability: 0.755
H3255; first compound 0.8 µM
  relative viability: 0.637
H3255; first compound 2.53 µM
  relative viability: 0.653
H3255; first compound 8 µM
  relative viability: 0.797
NCI-H520; first compound 0.08 µM
  relative viability: 0.874
NCI-H520; first compound 0.253 µM
  relative viability: 0.979
NCI-H520; first compound 0.8 µM
  relative viability: 1.09
NCI-H520; first compound 2.53 µM
  relative viability: 1.03
NCI-H520; first compound 8 µM
  relative viability: 0.971
BEN; first compound 0.08 µM
  relative viability: 0.912
BEN; first compound 0.253 µM
  relative viability: 1.06
BEN; first compound 0.8 µM
  relative viability: 1.32
BEN; first compound 2.53 µM
  relative viability: 1
BEN; first compound 8 µM
  relative viability: 1.46
NCI-H441; first compound 0.08 µM
  relative viability: 0.736
NCI-H441; first compound 0.253 µM
  relative viability: 0.933
NCI-H441; first compound 0.8 µM
  relative viability: 1.2
NCI-H441; first compound 2.53 µM
  relative viability: 0.551
NCI-H441; first compound 8 µM
  relative viability: 0.691
NCI-H2023; first compound 0.08 µM
  relative viability: 0.593
NCI-H2023; first compound 0.253 µM
  relative viability: 0.82
NCI-H2023; first compound 0.8 µM
  relative viability: 0.59
NCI-H2023; first compound 2.53 µM
  relative viability: 0.57
NCI-H2023; first compound 8 µM
  relative viability: 0.49
NCI-H596; first compound 0.08 µM
  relative viability: 0.588
NCI-H596; first compound 0.253 µM
  relative viability: 0.55
NCI-H596; first compound 0.8 µM
  relative viability: 0.5
NCI-H596; first compound 2.53 µM
  relative viability: 0.469
NCI-H596; first compound 8 µM
  relative viability: 0.594
NCI-H460; first compound 0.08 µM
  relative viability: 0.472
NCI-H460; first compound 0.253 µM
  relative viability: 0.682
NCI-H460; first compound 0.8 µM
  relative viability: 0.451
NCI-H460; first compound 2.53 µM
  relative viability: 0.57
NCI-H460; first compound 8 µM
  relative viability: 0.394
NCI-H1944; first compound 0.08 µM
  relative viability: 0.793
NCI-H1944; first compound 0.253 µM
  relative viability: 0.939
NCI-H1944; first compound 0.8 µM
  relative viability: 0.736
NCI-H1944; first compound 8 µM
  relative viability: 0.751
PC-3 [JPC-3]; first compound 0.08 µM
  relative viability: 0.994
PC-3 [JPC-3]; first compound 0.253 µM
  relative viability: 1.04
